Consider seven compounds from ChEMBL document CHEMBL1157116, “Synthesis of novel benzocoumarin derivatives as lipid lowering agents” (2010).

Holding throughout (format): functional
Parameters in all cases: scale not given: the % may be the effect or the level left

Assay [1] in a line: Antioxidant activity assessed as inhibition of xanthine-xanthine oxidase generated superoxide anion radical production assessed as formazone formation at 100 ug/ml after 30 mins by spectrophotometric analysis.
Assay [2] is described as follows: Antioxidant activity assessed as inhibition microsomal lipid peroxidation assessed as malondialdehyde formation at 100 ug/ml by thiobarbituric acid test. As to conditions: Microsome.
The nature of assay [3]: Antioxidant activity assessed as inhibition non-enzymatic reactants generated hydroxyl radical production at 100 ug/ml after 90 mins by spectrophotometry.
Assay [4] is described as follows: Antioxidant activity assessed as inhibition non-enzymatic reactants generated hydroxyl radical production at 20 ug/ml after 90 mins by spectrophotometry.
Assay [5] can be described thus: Antioxidant activity assessed as inhibition microsomal lipid peroxidation assessed as malondialdehyde formation at 20 ug/ml by thiobarbituric acid test. As to conditions: Microsome.
Assay [6] is described as follows: Antioxidant activity assessed as inhibition of xanthine-xanthine oxidase generated superoxide anion radical production assessed as formazone formation at 20 ug/ml after 30 mins by spectrophotometric analysis.
The test system of assay [7] is Rattus norvegicus. The experiment in a line: Antihyperlipidemic activity in Charles Foster rat assessed as reduction of triton WR-1339-induced plasma total cholesterol level at 25 mg/kg, po after 18 hrs by spectrophotometric analysis.
Assay [8] has as its system Rattus norvegicus. The experiment in a line: Antihyperlipidemic activity in Charles Foster rat assessed as reduction of triton WR-1339-induced plasma triglyceride level at 25 mg/kg, po after 18 hrs by spectrophotometric analysis.
Assay [9] concerns Rattus norvegicus. The experiment in a line: Antihyperlipidemic activity in Charles Foster rat assessed as reduction of triton WR-1339-induced plasma phospholipid level at 100 mg/kg, po after 18 hrs by spectrophotometric analysis.
Assay [10] has as its system Rattus norvegicus. The experiment in a line: Antihyperlipidemic activity in Charles Foster rat assessed as reduction of triton WR-1339-induced plasma triglyceride level at 100 mg/kg, po after 18 hrs by spectrophotometric analysis.
For assay [11], the system named is Rattus norvegicus. The experiment in a line: Antihyperlipidemic activity in Charles Foster rat assessed as reduction of triton WR-1339-induced plasma total cholesterol level at 100 mg/kg, po after 18 hrs by spectrophotometric analysis.
For assay [12], the system named is Rattus norvegicus. The experiment in a line: Antihyperlipidemic activity in Charles Foster rat assessed as reduction of triton WR-1339-induced plasma phospholipid level at 25 mg/kg, po after 18 hrs by spectrophotometric analysis.
Assay [13] deals with Rattus norvegicus. The experiment in a line: Antihyperlipidemic activity in Charles Foster rat assessed as reduction of triton WR-1339-induced plasma post heparin lipolytic activity at 100 mg/kg, po after 18 hrs by spectrophotometric analysis.

`CCOC(=O)COc1cccc2c1ccc1c(C)cc(=O)oc12`: the values for the Activity in [1], in assay [2] and in [3] were 28%, 37% and 38%, respectively.
On to `OC[C@@H](O)[C@@H](O)[C@H](O)[C@H](O)CO`, for which, in assay [4], the Activity was 48%.
With `Cc1c(C)c2c(c(C)c1O)CC[C@@](C)(CCC[C@H](C)CCC[C@H](C)CCCC(C)C)O2`, the Activity in assay [5] came out at 45%.
Consider `Oc1ncnc2[nH]ncc12`, for which the Activity in [6] is 86%.
For the compound `Cc1cc(=O)oc2c1ccc1c(OCc3ccccc3)cccc12`, the Activity in [7] was determined as 26%; in assay [1] it was 40%; in assay [2], 38%; in assay [3] it was 41%; in assay [8], 23%; in assay [9], 29%. In addition, the Activity in assay [10] came out at 28%; in assay [11] it was 28%; in assay [12], 24%; in assay [13] it was 18%.
In the case of `Cc1ccc(C)c(OCCCC(C)(C)C(=O)O)c1` [GEMFIBROZIL], the Activity is recorded as 35% in assay [9], 31% in [10], 36% in [11] and 24% in assay [13].
For the compound `Cc1cc(=O)oc2c1ccc1c(OC(C)c3ccccc3)cccc12` (stereo not drawn), the figures for the Activity in [9], in assay [10] and in assay [11] were 26%, 22% and 23%, respectively.
